The values that follow come from PMC10912632, “Racemization of the substrate and product by serine palmitoyltransferase from Sphingobacterium multivorum yields two enantiomers of the product from D-serine” (The Journal of Biological Chemistry, 2024).

Assay [1] concerns the target T1, Sphingobacterium multivorum SPT (Sphingobacterium multivorum, UniProt A7BFV6).
T1 construct: harboring the plasmid expressing the full-length SPT; made in house; host or cells: Escherichia coli BL21 (DE3) pLysS
Set-up: method as in PMID 23957439. Conditions: spectroscopic titration; cited from earlier work.

Assay [2] deals with T1, Sphingobacterium multivorum SPT. More on the design: method as in PMID 23957439. Conditions: 1 mM palmitoyl-CoA; cited from earlier work.
Assay [3] shares this target. As to the kind of experiment: Spectroscopic titration of SPT with amino acids (422 nm absorption, external aldimine formation). Type of assay: binding. As to conditions: 10 μM SPT. Here is the method:
(§1) Dependency of the reaction rates on amino acid concentrations under the condition of 1 mM palmitoyl-CoA was examined (Table 1). Each LCB product was quantified by the fluorescence intensity based on the standard curve obtained by using the corresponding authentic compound ([23]). The value of apparent catalytic efficiency ( kcatapp/Kmapp ) for D-serine was 0. 0013 min^–1 mM^–1 and was much smaller than that for L-serine ( kcatapp/Kmapp = 3.6 min^–1 mM^–1). Therefore, the KDS production by SPT from D-serine is considered to be negligible at the physiological concentration of D-serine. Next, binding of D-serine to the S. multivorum SPT was examined by spectroscopic titration. When SPT was incubated with D-serine, spectral changes corresponding to the external aldimine formation between PLP and the amino acid were observed (Supporting information).
Figure S1. Spectroscopic titration of the S. multivorum SPT with D-serine or α-methyl-D-serine. (A) Absorption spectra of SPT (10 μM) in the presence of 0, 2.0, 5.0, 9.9, 15, 20, 29, 38, and 48 mM D-serine (lines 1–9, respectively).
(B) Absorption spectra of SPT (10 μM) in the presence of 0, 3.0, 6.0, 9.9, 20, 34, 52, 74, and 99 mM α-methyl-D-serine (lines 1–9, respectively).
Determination of dissociation constants (Kd) for amino acids.
The titration assay was carried out as previously reported (1). The changes of the 422 nm-absorption intensities of SPT upon addition of amino acids were plotted against the final concentrations of the amino acids, and the Kd values were calculated by fitting to a hyperbolic saturation curve using Igor Pro 6.37. software (Wave Matrix Inc., Lake Oswego, Oregon, […]
United States). […]

For assay [4] the target is unchanged. In words: Chiral HPLC of 7-methoxycoumarin-labeled KDS enantiomers after SPT reaction or incubation. The assay is classed as biochemical. As to conditions: 1.3 mM KDS incubated with 230 μM SPT, 37 °C, 120 min. An excerpt:
KDS has a chiral center at the C2 position to which hydrogen, hydroxymethyl, amino, and acyl groups are attached. In the present study, it was necessary to know which optical isomer, (2S)- or (2R)-KDS, was formed from D-serine. In order to detect KDS enantiomers, we developed a new method in which each enantiomer of 7-methoxycoumarin-labeled KDS was separated and quantified by chiral HPLC (Fig. 2A). First, the standard compounds (2S)-2-amino-1-hydroxyoctadecan-3-one (L-serine–type (2S)-KDS) and (2R)-2-amino-1-hydroxyoctadecan-3-one (D-serine–type (2R)-KDS) were chemically synthesized (Supporting information). Next, the conditions for fluorescence labeling and HPLC were examined using these authentic compounds; the successful separation of KDS enantiomers was achieved by 7-methoxycoumarin labeling of the amino group of KDS (Fig. 2B, lines 1–3). The labeled (2S)-KDS and (2R)-KDS were eluted at 7.7 and 8.9 min, respectively, with the calculated separation factor of 1.3 (Fig. 2B, line 3). When the SPT reaction product derived from L-serine was analyzed, two fluorescence peaks were detected (Fig. 2B, line 4). […] Similarly, for the SPT reaction product derived from D-serine, two fluorescence peaks corresponding to 7-methoxycoumarin-labeled (2S)-KDS and 7-methoxycoumarin-labeled (2R)-KDS were detected (Fig. 2B, line 5). […]

For assay [5] the target is unchanged. In words: TLC/autoradiography analysis of KDS formation. The assay is classed as biochemical. As to conditions: 500 mM serine, 1 mM [1-14C]-palmitoyl-CoA, 100 μM SPT, 37 °C, 60 min. The source says:
We previously reported that the KDS formation from D-serine was not detected under physiological assay conditions using S. paucimobilis SPT ([15], [47]). […] Each reaction product was ninhydrin-positive with the specific color and the Rf value, which corresponded to those of a commercial authentic KDS on the TLC plate (Fig. 1A, lanes 2 and 4). […] Such radioactive reaction products were not detected under the reaction condition lacking the amino acid substrate or SPT. The structure of the reaction product derived from each serine enantiomer was confirmed by HPLC/triple quadrupole/linear ion trap mass spectrometry using a commercially available authentic KDS as the standard (Fig. 1C).
Figure 1 Formation of KDS from L-serine and D-serine by the Sphingobacterium multivorum SPT.A, image of the TLC analysis of KDS visualized with ninhydrin reagent: lane 1, extract of the reaction mixture without the amino acid substrate; lane 2, extract of the reaction mixture with L-serine; lane 3, commercial authentic KDS (L-serine–derived, (2S)-KDS); lane 4, extract of the reaction mixture with D-serine; lane 5, extract of the reaction mixture without SPT. The complete reaction mixture contained 500 mM L-/D-serine, 1 mM palmitoyl-CoA, and 100 μM SPT and was incubated at 37 °C for 60 min. […] Radioactivity was incorporated to the reaction product from the substrate [1-^14C]-palmitoyl-CoA. […]

Assay [6] has the same target. In words: Steady-state kinetics of LCB (KDS) formation by SPT. The assay is classed as biochemical. Conditions: 1 mM palmitoyl-CoA. The method, then:
as §1
The assay was performed as previously reported ([23]). For qualitative analysis, 500 mM of L-serine or D-serine was incubated with 1 mM palmitoyl-CoA and 100 μM SPT in 100 μl of 100 mM potassium phosphate, pH 7.5, at 37 °C for 60 min. [1-^14C] palmitoyl-CoA (20 kBq/μmol) was supplemented into the above reaction mixture as the tracer. The reactions were terminated by addition of the equal volume of 2 N ammonia. Lipids were extracted by successive addition and mixing of 750 μl of chloroform/methanol (1:2, v/v), 250 μl of chloroform, and 250 μl of 1% KCl. Phases were separated by centrifugation, and the organic phase was recovered. […] For the quantitative analysis, the UV-fluorescence intensities of the reaction products on TLC plates were visualized by a Fusion chemiluminescence imaging system using a UV-light box and analyzed by a FUSION Capt software (Vilber Lourmat).
Steady-state kinetic parameters were determined by varying the concentrations of D-serine in the presence of 1 mM palmitoyl-CoA in 100 μl of 100 mM potassium phosphate, pH 7.5, at 37 °C. […] The reaction termination, lipid extraction, TLC analysis, and quantification of the reaction products on TLC plates were described above. […]

For assay [7] the target is unchanged. In words: Serine racemase assay of SPT (fluorescence derivatization, reverse-phase HPLC). The assay is classed as biochemical. Conditions: 1 mM D-serine, 47 μM SPT, 37 °C, no palmitoyl-CoA.
Description: In order to verify the possibility of conversion between D-serine and L-serine, the serine racemase activity of SPT in the absence of palmitoyl-CoA was examined by the combination of fluorescence labeling and reverse-phase HPLC (Fig. 4).
One millimolar L-serine or D-serine was incubated with or without 47 μM SPT at 37 °C for 24 h. […] The reaction mixture containing 1 mM serine and 47 μM SPT was incubated at 37 °C for 1 to 24 h. […] The reaction mixture contained 1 mM serine and either or both of 1 mM PLP and 47 μM SPT.
Serine racemase assay of SPT was performed by determining the amount of each antipodal serine derivative formed from D-serine or L-serine as previously reported with some modifications ([48]). After D/L-serine was derivatized to fluorescent diastereomer, the enantioselective detection of serine was performed on an HPLC system with a Multi lambda Fluorescence Detector (Waters Corporation). The reaction was carried out at 37 °C for 1 to 24 h in a reaction mixture (100 μl) containing 100 mM Tris/HCl buffer (pH 7.5), 1 mM D/L-serine, and 47 μM SPT with or without 1 mM PLP. […] For fluorescence detection, the excitation and emission wavelengths were 350 nm and 450 nm, respectively. […]

SMILES strings stand for the structures. Values joined by “and” are separate entries in the source; they are usually repeats but may differ in a detail not shown here. Equal entries are not always repeated. Where two headings read alike, the source gives them in different places. Marks after values point to notes of the source that are not given here.

T1 sequence (A7BFV6 whole entry): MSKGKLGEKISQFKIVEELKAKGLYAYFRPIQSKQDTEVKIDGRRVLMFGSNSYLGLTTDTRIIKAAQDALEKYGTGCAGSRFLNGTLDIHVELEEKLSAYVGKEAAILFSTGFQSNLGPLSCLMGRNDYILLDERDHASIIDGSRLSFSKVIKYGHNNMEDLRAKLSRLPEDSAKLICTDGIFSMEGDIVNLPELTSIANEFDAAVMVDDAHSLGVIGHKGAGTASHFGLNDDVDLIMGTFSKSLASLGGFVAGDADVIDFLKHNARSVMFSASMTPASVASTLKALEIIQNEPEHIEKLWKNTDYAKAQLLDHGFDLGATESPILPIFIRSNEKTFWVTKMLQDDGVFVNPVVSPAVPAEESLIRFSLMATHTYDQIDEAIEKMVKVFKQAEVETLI

As a reminder, the Kd is the constant that tells how readily two partners part at equilibrium. In the case of `N[C@@H](CCO)C(=O)O` [L-homoserine], the Kd in assay [1] was 3.6 ± 0.2 mM. In assay [2], the Kmapp is on record as 82 ± 14 ^b mM, the kcatapp was 4.5 ± 0.28 ^b min^–1 and the “kcatapp/Kmapp (apparent catalytic efficiency)” value (“kcatapp/Kmapp” for short) was 0.055 ^b min^–1 mM^–1.
As for `C[C@](N)(CO)C(=O)O` [α-methyl-L-serine, reference compound], the affinity in assay [3], expressed as Kd, was 8.3 ± 1.8 mM.
For `C[C@H](N)C(=O)O` [L-alanine], in assay [2], the Kmapp is recorded as 110 ± 9.0 ^b mM, the kcatapp is given as 0.42 ± 0.011 ^b min^–1 and the “kcatapp/Kmapp” value is recorded as 0.0037 ^b min^–1 mM^–1.
As to `CCCCCCCCCCCCCCCC(=O)[C@@H](N)CO` [(2S)-KDS, (2S)-2-amino-1-hydroxyoctadecan-3-one], in assay [4], the “SPT-dependent racemization of KDS enantiomer” value is reported as “the racemized product was formed in each case, albeit in a smaller amount”.
For the compound `C[C@@](N)(CO)C(=O)O` [α-methyl-D-serine, reference compound], the dissociation constant (Kd) in assay [3] turned out to be 27 ± 2.5 mM.
`CCCCCCCCCCCCCCCC(=O)[C@H](N)CO` [(2R)-KDS, (2R)-2-amino-1-hydroxyoctadecan-3-one]: the “SPT-dependent racemization of KDS enantiomer” value in assay [4] is “the racemized product was formed in each case, albeit in a smaller amount”.
For `N[C@@H](CO)C(=O)O` [L-serine], in assay [5], the “formation of KDS reaction product” value is reported as “the reaction product was formed”. In assay [2], the Kmapp is on record as 3.6 ± 0.87 ^b mM; the kcatapp is 13 ± 1.0 ^b min^–1; the “kcatapp/Kmapp” value was 3.6 min^–1 mM^–1 and 3.6 ^b min^–1 mM^–1.
On to `NCC(=O)O` [glycine], for which the dissociation constant Kd in assay [1] is 71 ± 5.5 mM. Besides, in assay [2], the Kmapp is 77 ± 8.1 ^b mM, the kcatapp was 0.008 ± 0.002 ^b min^–1 and the “kcatapp/Kmapp” value is 0.0001 ^b min^–1 mM^–1.
As for `N[C@H](CO)C(=O)O` [D-serine], in assay [6], the “kcatapp/Kmapp” value is recorded as 0.0013 min^–1 mM^–1. Also, in assay [6] (10 μM SPT, pH 7.5, 37 °C), the Kmapp was 237.7 ± 44.3 mM and the kcatapp was 0.31 ± 0.02 min^–1. For the same compound, in assay [5], the “formation of KDS reaction product” value is “the reaction product was formed”. In addition, in assay [7], the “formation rate of L-serine from D-serine (racemization)” value amounted to 0.0020 min^–1. Binding in assay [3] was characterised by a dissociation constant (Kd) of 11 ± 1.8 mM.
In turn, `N[C@H](CCO)C(=O)O` [D-homoserine] showed a Kd in assay [3] of 90 ± 8 mM.
